Where only a bound is given, the exact number is not on record here.

The subject of data set [1] is bicistronic HCV replicon (replicon RNA, GenBank Accession No. AJ242654). The data set is described as follows: HCV Replicon Assay. The format is cell-based. The conditions noted are these: Hepatitis C virus, 72 h, read-out: Replicon IC50. Background: A replicon is a self-replicating genome or part of one, used to study replication in cells.

Broadly, the melting point is the temperature of the solid-liquid transition. A word on the IC50: it is the concentration at which inhibition is half-maximal. `Cc1ccc2c(c1)c(C#N)c(-c1ncc(S(=O)(=O)N[C@@H](C)C3CC3)cn1)n2C(C)C` [compound 563, 2-[3-cyano-5-methyl-1-(propan-2-yl)-1H-indol-2-yl]-N-[(1S)-1-cyclopropylethyl]pyrimidine-5-sulfonamide]: the melting point fell in the range of 171 to 174 °C. In data set [1], the IC50 lay in the range of 500 to 2000 nM.
In the same order, the values of `C[C@@H](NS(=O)(=O)c1ccc(-c2c(C#N)c3ccc(Cl)cc3n2C2CCCCC2)nc1)C(F)(F)F` [compound 514, 6-(6-chloro-3-cyano-1-cyclohexyl-1H-indol-2-yl)-N-[(2R)-1,1,1-trifluoropropan-2-yl]pyridine-3-sulfonamide] are 218 to 223 °C and below 500 nM.
In the same order, the values of `Cc1cc2c(cc1O)c(C#N)c(-c1ccc(S(=O)(=O)N[C@H](C)C(F)(F)F)cn1)n2C1CCC1` [compound 807, 6-(3-cyano-1-cyclobutyl-5-hydroxy-6-methyl-1H-indol-2-yl)-N-[(2R)-1,1,1-trifluoropropan-2-yl]pyridine-3-sulfonamide] are 209 to 210 °C and below 500 nM.
In the same order, the values of `C[C@H](NS(=O)(=O)c1ccc(-c2c(C#N)c3cc(F)ccc3n2-c2ccccn2)nc1)C(F)(F)F` [compound 386, 6-[3-cyano-5-fluoro-1-(pyridin-2-yl)-1H-indol-2-yl]-N-[(2S)-1,1,1-trifluoropropan-2-yl]pyridine-3-sulfonamide] are 210 to 212 °C and below 500 nM.
For `Cc1cc2c(cc1F)c(C(N)=O)c(-c1ccc(S(=O)(=O)NC(C)(C)C)cn1)n2-c1ccccc1` [compound 1116, 2-[5-(tert-butylsulfamoyl)pyridin-2-yl]-5-fluoro-6-methyl-1-phenyl-1H-indole-3-carboxamide], the melting point is 241.2 to 242.5 °C. In data set [1], the IC50 is below 500 nM.
In the same order, the values of `CCc1cc2c(cc1F)c(C#N)c(-c1ccc(S(=O)(=O)N[C@@H](C)C(F)(F)F)c(C)n1)n2-c1ncccn1` [compound 881, 6-[3-cyano-6-ethyl-5-fluoro-1-(pyrimidin-2-yl)-1H-indol-2-yl]-2-methyl-N-[(2S)-1,1,1-trifluoropropan-2-yl]pyridine-3-sulfonamide] are 258 to 262 °C and below 500 nM.
Taken in the same sequence, the figures for `C[C@H](NS(=O)(=O)c1ccc(-c2c(C#N)c3ccc(C#N)cc3n2CC2CC2)nc1)C(F)(F)F` [compound 349, 6-[3,6-dicyano-1-(cyclopropylmethyl)-1H-indol-2-yl]-N-[(2S)-1,1,1-trifluoropropan-2-yl]pyridine-3-sulfonamide] were 187 to 188 °C and 500 to 2000 nM.
In the same order, the values of `Cc1ccc2c(c1)c(C#N)c(-c1ccc(S(=O)(=O)N[C@@H](C)C3CC3)cn1)n2C(C)C` [compound 564, 6-[3-cyano-5-methyl-1-(propan-2-yl)-1H-indol-2-yl]-N-[(1S)-1-cyclopropylethyl]pyridine-3-sulfonamide] are 170 to 173 °C and below 500 nM.
The compound `Cc1c(OC(F)F)c(F)cc2c(C#N)c(-c3ccc(S(=O)(=O)N[C@@H](C)C(F)(F)F)cn3)n(C3CCC3)c12` [compound 811, 6-[3-cyano-1-cyclobutyl-6-(difluoromethoxy)-5-fluoro-7-methyl-1H-indol-2-yl]-N-[(2S)-1,1,1-trifluoropropan-2-yl]pyridine-3-sulfonamide] came in with a melting point of 168 to 174 °C. Moreover, the IC50 in data set [1] was below 500 nM.
In the same order, the values of `CCc1cc2c(cc1F)c(C(N)=O)c(-c1ccc(S(=O)(=O)N[C@@H](C)C(F)(F)F)cn1)n2-c1cc(Cl)ccn1` [compound 1048, 1-(4-chloropyridin-2-yl)-6-ethyl-5-fluoro-2-(5-{[(2S)-1,1,1-trifluoropropan-2-yl]sulfamoyl}pyridin-2-yl)-1H-indole-3-carboxamide] are 200 to 204 °C and 500 to 2000 nM.
Taken in the same sequence, the figures for `CCc1cc2c(cc1F)c(C#N)c(-c1ccc(S(=O)(=O)N[C@@H](C)C(F)(F)F)cn1)n2-c1ccc(OC)cc1` [compound 1005, 6-[3-cyano-6-ethyl-5-fluoro-1-(4-methoxyphenyl)-1H-indol-2-yl]-N-[(2S)-1,1,1-trifluoropropan-2-yl]pyridine-3-sulfonamide] were 261 to 266 °C and below 500 nM.
Taken in the same sequence, the figures for `Cc1cc2c(cc1F)c(C#N)c(-c1ccc(S(=O)(=O)NC3(C)CC3)cn1)n2C1CCCC1` [compound 645, 6-(3-cyano-1-cyclopentyl-5-fluoro-6-methyl-1H-indol-2-yl)-N-(1-methylcyclopropyl)pyridine-3-sulfonamide] were 208 to 209 °C and below 500 nM.
As to `Cc1c(F)cc2c(c1F)c(C#N)c(-c1ccc(S(=O)(=O)NC(CF)CF)cn1)n2C1CCC1` [compound 556, 6-(3-cyano-1-cyclobutyl-4,6-difluoro-5-methyl-1H-indol-2-yl)-N-(1,3-difluoropropan-2-yl)pyridine-3-sulfonamide], the melting point lay within 207 to 212 °C. For the same compound, in data set [1], the 50% inhibitory concentration (IC50) is below 500 nM.
Taken in the same sequence, the figures for `CCc1cc2c(cc1F)c(C(N)=O)c(-c1ccc(S(=O)(=O)N[C@@H](C)C(F)(F)F)cn1)n2-c1cc(C)ccn1` [compound 980, 6-ethyl-5-fluoro-1-(4-methylpyridin-2-yl)-2-(5-{[(2S)-1,1,1-trifluoropropan-2-yl]sulfamoyl}pyridin-2-yl)-1H-indole-3-carboxamide] were 137 to 145 °C and 500 to 2000 nM.
Taken in the same sequence, the figures for `CC(C)NS(=O)(=O)c1cnc(-c2c(C#N)c3cc(Cl)ccc3n2C2CCCCC2)nc1` [compound 97, 2-(5-chloro-3-cyano-1-cyclohexyl-1H-indol-2-yl)-N-(propan-2-yl)pyrimidine-5-sulfonamide] were 210 to 215 °C and 500 to 2000 nM.
Taken in the same sequence, the figures for `C[C@H](NS(=O)(=O)c1ccc(-c2c(C#N)c3ccc(Cl)cc3n2C2CCCCC2)nc1)C(F)(F)F` [compound 515, 6-(6-chloro-3-cyano-1-cyclohexyl-1H-indol-2-yl)-N-[(2S)-1,1,1-trifluoropropan-2-yl]pyridine-3-sulfonamide] were 217 to 224 °C and below 500 nM.
In the case of `Cc1cc2c(cc1F)c(C#N)c(-c1ccc(S(=O)(=O)N[C@@H](C)C(F)(F)F)cn1)n2-c1ccc(C#N)s1` [compound 1033, 6-[3-cyano-1-(5-cyanothiophen-2-yl)-5-fluoro-6-methyl-1H-indol-2-yl]-N-[(2S)-1,1,1-trifluoropropan-2-yl]pyridine-3-sulfonamide], the melting point was 182 to 184.6 °C. The IC50 in data set [1] is below 500 nM.
In the same order, the values of `Cc1cc(F)c2c(C#N)c(-c3ccc(S(=O)(=O)NC(C)(C)C(F)(F)F)cn3)n(C3CCCC3)c2c1` [compound 626, 6-(3-cyano-1-cyclopentyl-4-fluoro-6-methyl-1H-indol-2-yl)-N-(1,1,1-trifluoro-2-methylpropan-2-yl)pyridine-3-sulfonamide] are 218 to 223 °C and below 500 nM.
On to `CCc1cc2c(cc1F)c(C#N)c(-c1ccc(S(=O)(=O)N[C@@H](C)C(F)(F)F)cn1)n2-c1ccc(Cl)cc1` [compound 1003, 6-[1-(4-chlorophenyl)-3-cyano-6-ethyl-5-fluoro-1H-indol-2-yl]-N-[(2S)-1,1,1-trifluoropropan-2-yl]pyridine-3-sulfonamide], for which the melting point fell in the range of 279 to 289 °C. The IC50 in data set [1] was below 500 nM.
